Values after ≈ are worked out from the molar mass of the structure shown. Read-outs that look alike come from different tables or passages of the source.
Tests used:
[1] = test system: Staphylococcus aureus RN 4222 (WT); test: MIC determination in wild type S. aureus; type: cell-based; conditions: for effect of pH 9 on sensitivity / effectiveness: change of pH from 7 to 9
Method: (§1) Determination of minimal inhibitory concentrations (MICs). MICs were determined by serial two-fold dilution of antimicrobials in Mueller-Hinton broth containing chloramphenicol ([…]). […] Around 10^5 cells were inoculated in 1 ml of medium for the test. MICs were read after 18 hours of incubation at 37 C. with aeration. The 50% inhibitory concentration (IC50) was determined by growing cells in microtiter plate wells and reading the optical density after overnight growth at 650 nm.

[2] = test system: Staphylococcus aureus KLE 820 (norA−); test: microbe, parasite or virus in culture; type: cell-based; conditions: for Sensitivity of norA- as compared to the wild type: in the absence of reserpine; for effect of addition of reserpine on sensitivity to drugs: norA mutant
From the text: Disruption of the norA gene. Chloramphenicol acetyltransferase (CAT) gene was isolated by digesting plasmid pLI50 (10) with Sau3A (New England Biolabs). The CAT gene was cloned into the BamHI site of plasmid pSP72 (Promega) to yield plasmid PCH22. Chromosomal DNA from S. aureus RN4220 was isolated according to the protocol of Qiagen, Inc. Part of the 1050 bp norA gene lacking a 80 bp N-terminus and a 20 bp C-terminus was PCR-amplified from chromosomal DNA using primer A:5′-[…]-[…] and primer B:5′-[…]. This fragment was cloned into the EcoRI/EcoRV site of PCH22 to yield plasmid PCH23. S. aureus were transformed by PCH23 using electroporation (11). Cells were plated on trypticase soy agar (TSA) with chloramphenicol. A transformant colony was picked after 24 hours of incubation at 37 C., regrown, plated on CAM medium and a large colony was picked for further work.
as §1

S. aureus = test: MICs of antimicrobials with small molecule MDR inhibitor (I) and high pH; type: cell-based, Staphylococcus aureus; conditions: for potentiation by high pH and MDR inhibitor: high pH combined with MDR inhibitor / MDR inactivation; for Potentiation factor (pH 7/(pH 9 + I)): pH 7 vs pH 9 + I
Method: as §1

[3] = RN 4222 (WT), +R (20 μg/mL reserpine)
[4] = KLE 820 (norA−), +R (20 μg/mL reserpine)
[5] = Staphylococcus aureus, KLE 820 (norA−), −R (no reserpine)
[6] = Staphylococcus aureus, pH 7.2, KLE 820 (norA−), pH 7.2
[7] = Staphylococcus aureus, pH 9, KLE 820 (norA−), pH 9
[8] = Staphylococcus aureus, RN 4222 (WT), −R (no reserpine), read-out: MIC
[9] = Staphylococcus aureus, RN 4222 (WT), pH 7.2, read-out: MIC
[10] = Staphylococcus aureus, RN 4222 (WT), pH 9, read-out: MIC
[11] = Staphylococcus aureus, pH 7, read-out: MIC
[12] = Staphylococcus aureus, pH 9, read-out: MIC
[13] = RN 4222 (WT), −R (no reserpine)
[14] = KLE 820 (norA−), −R (no reserpine)

Compound: [Br-].c1ccc([P+](c2ccccc2)(c2ccccc2)c2ccccc2)cc1 [TPP, tetraphenylphosphonium bromide]
- MIC [1, 3]: 7.8 µg/mL
- MIC ([1]; Staphylococcus aureus): 15.6 µg/mL
- MIC ([1]; Staphylococcus aureus, pH 7.2): 15.6 µg/mL
- MIC ([1]; Staphylococcus aureus, pH 9): 0.48 µg/mL
- MIC [2, 4]: 1.9 µg/mL
- MIC [2, 5]: 1.9 µg/mL
- MIC [2, 6]: 1.98 µg/mL
- MIC [2, 7]: 0.12 µg/mL
- Sensitivity of norA- as compared to the wild type [2]: 8
- Sensitivity norA− at pH 9 vs. WT at pH 7.2 [2]: 130

Compound: NC[C@H]1O[C@H](O[C@H]2[C@H](O)[C@@H](O[C@H]3O[C@H](CO)[C@@H](O)[C@H](N)[C@H]3O)[C@H](N)C[C@@H]2N)[C@H](O)[C@@H](O)[C@@H]1O [Kanamycin]
- MIC [1, 8]: 0.33 µg/mL (≈ 0.681 µM)
- Sensitivity of norA- as compared to the wild type [2]: 1

Compound: COC(=O)[C@H]1[C@H]2C[C@@H]3c4[nH]c5cc(OC)ccc5c4CCN3C[C@H]2C[C@@H](OC(=O)c2cc(OC)c(OC)c(OC)c2)[C@@H]1OC [Reserpine]
- effect of addition of reserpine on sensitivity to drugs ([1]; wild type): increased the sensitivity of the wild type to drugs
- effect of addition of reserpine on sensitivity to drugs [2]: virtually no effect
- effect of addition of reserpine on sensitivity to drugs ([2]; listed as Reserpin): failed to further increase sensitivity

Compound: CC(=O)OCC1=C(C(=O)O)N2C(=O)[C@@H](NC(=O)Cc3cccs3)[C@H]2SC1 [Cephalothin]
- MIC [1, 8]: 0.15 µg/mL (≈ 0.378 µM)
- Sensitivity of norA- as compared to the wild type [2]: 1

Compound: CCC[C@@H]1C[C@@H](C(=O)N[C@@H]([C@H]2O[C@H](SC)[C@H](O)[C@@H](O)[C@H]2O)[C@@H](C)O)N(C)C1 [Lincomycin]
- MIC [1, 8]: 0.6 µg/mL (≈ 1.48 µM)
- Sensitivity of norA- as compared to the wild type [2]: 1

Compound: COc1ccc(C[C@H](N)C(=O)N[C@H]2[C@@H](O)[C@H](n3cnc4c(N(C)C)ncnc43)O[C@@H]2CO)cc1 [Puromycin]
- MIC [1, 9]: 20 µg/mL (≈ 42.4 µM)
- MIC [1, 10]: 2.5 µg/mL (≈ 5.3 µM)
- Sensitivity norA− at pH 9 vs. WT at pH 7.2 [2]: 8

Compound: CC[C@H]1OC(=O)[C@H](C)[C@@H](O[C@H]2C[C@@](C)(OC)[C@@H](O)[C@H](C)O2)[C@H](C)[C@@H](O[C@@H]2O[C@H](C)C[C@H](N(C)C)[C@H]2O)[C@](C)(O)C[C@@H](C)C(=O)[C@H](C)[C@@H](O)[C@]1(C)O [Erythromycin]
- MIC ([1]; Staphylococcus aureus): 0.195 µg/mL (≈ 0.266 µM)
- MIC [2, 5]: 0.195 µg/mL (≈ 0.266 µM)
- Sensitivity of norA- as compared to the wild type [2]: 1

Compound: CCn1cc(C(=O)O)c(=O)c2cc(F)c(N3CCNCC3)cc21 [Norfloxacin]
- MIC [1, 3]: 0.67 µg/mL (≈ 2.1 µM)
- MIC [1, 9]: 1.25 µg/mL (≈ 3.91 µM)
- MIC [1, 10]: 1.25 µg/mL (≈ 3.91 µM)
- MIC [1, 8]: 1.25 µg/mL (≈ 3.91 µM)
- MIC [2, 4]: 0.33 µg/mL (≈ 1.03 µM)
- MIC [2, 5]: 0.33 µg/mL (≈ 1.03 µM)
- MIC [2, 6]: 0.33 µg/mL (≈ 1.03 µM)
- MIC [2, 7]: 0.33 µg/mL (≈ 1.03 µM)
- Sensitivity of norA- as compared to the wild type [2]: 4
- Sensitivity norA− at pH 9 vs. WT at pH 7.2 [2]: 4

Compound: [H]/N=C(\N/C(=N/[H])NCCCCCCNC(=N)NC(=N)Nc1ccc(Cl)cc1)Nc1ccc(Cl)cc1 [Chlorhexidine]
- MIC [1, 9]: 0.5 µg/mL (≈ 0.989 µM)
- MIC [1, 10]: 0.06 µg/mL (≈ 0.119 µM)
- effect of pH 9 on sensitivity / effectiveness [1]: significantly increased the effectiveness
- MIC [2, 6]: 0.125 µg/mL (≈ 0.247 µM)
- MIC [2, 7]: 0.0156 µg/mL (≈ 0.0309 µM)
- Sensitivity norA− at pH 9 vs. WT at pH 7.2 [2]: 32
- MIC (S. aureus; [11]): 0.5 µg/mL (≈ 0.989 µM)
- MIC (S. aureus; [12]): 0.12 µg/mL (≈ 0.237 µM)
- potentiation by high pH and MDR inhibitor (S. aureus): 133 fold
- MIC (S. aureus; pH 7 + I (10 μg/mL)): 0.06 µg/mL
- Ratio (S. aureus; pH 7 vs pH 7 + I): 8.3
- Potentiation factor (pH 7/(pH 9 + I)) (S. aureus): 133
- MIC (S. aureus; pH 9 + I): 0.0037 µg/mL
- Ratio (S. aureus; pH 9 vs pH 9 + I): 32

Compound: Benzalkonium Chloride
- MIC ([1]; RN 4222 (WT), pH 7.2): 0.67 µg/mL
- MIC ([1]; RN 4222 (WT), pH 9): 0.08 µg/mL
- effect of pH 9 on sensitivity / effectiveness [1]: significantly increased the effectiveness
- MIC ([2]; KLE 820 (norA−), pH 7.2): 0.16 µg/mL
- MIC ([2]; KLE 820 (norA−), pH 9): 0.0104 µg/mL
- Sensitivity norA− at pH 9 vs. WT at pH 7.2 [2]: 64
- MIC (S. aureus; pH 7): 0.67 µg/mL
- MIC (S. aureus; pH 7 + I (10 μg/mL)): 0.08 µg/mL
- Ratio (S. aureus; pH 7 vs pH 7 + I): 8.3
- Potentiation factor (pH 7/(pH 9 + I)) (S. aureus): 134
- MIC (S. aureus; pH 9): 0.16 µg/mL
- MIC (S. aureus; pH 9 + I): <0.005 µg/mL
- Ratio (S. aureus; pH 9 vs pH 9 + I): 32

Compound: CN(C)[C@@H]1C(O)=C(C(N)=O)C(=O)[C@@]2(O)C(O)=C3C(=O)c4c(O)cccc4[C@@](C)(O)[C@H]3C[C@@H]12 [Tetracycline]
- MIC [1, 8]: 0.097 µg/mL (≈ 0.218 µM)
- Sensitivity of norA- as compared to the wild type [2]: 1

Compound: CN[C@H](CC(C)C)C(=O)N[C@H]1C(=O)N[C@@H](CC(N)=O)C(=O)N[C@H]2C(=O)N[C@H]3C(=O)N[C@H](C(=O)N[C@H](C(=O)O)c4cc(O)cc(O)c4-c4cc3ccc4O)[C@H](O)c3ccc(c(Cl)c3)Oc3cc2cc(c3O[C@@H]2O[C@H](CO)[C@@H](O)[C@H](O)[C@H]2O[C@H]2C[C@](C)(N)[C@H](O)[C@H](C)O2)Oc2ccc(cc2Cl)[C@H]1O [Vancomycin]
- MIC ([1]; Staphylococcus aureus): 1.5 µg/mL (≈ 1.04 µM)
- MIC ([2]; Staphylococcus aureus): 1.5 µg/mL (≈ 1.04 µM)
- Sensitivity of norA- as compared to the wild type [2]: 1

Compound: Gentamycin
- MIC [1, 13]: 0.62 µg/mL
- MIC [2, 14]: 0.62 µg/mL
- Sensitivity of norA- as compared to the wild type [2]: 1

Compound: C[n+]1cc2c3c(ccc2c2ccc4cc5c(cc4c21)OCO5)OCO3 [Sanguinarine]
- MIC (S. aureus; [11]): 2.5 µg/mL
- MIC (S. aureus; [12]): 1.25 µg/mL
- potentiation by high pH and MDR inhibitor (S. aureus): approximately 100 fold
- MIC (S. aureus; pH 7 + I (10 μg/mL)): 0.67 µg/mL
- Ratio (S. aureus; pH 7 vs pH 7 + I): 3.7
- Potentiation factor (pH 7/(pH 9 + I)) (S. aureus): 16.6
- MIC (S. aureus; pH 9 + I): 0.15 µg/mL
- Ratio (S. aureus; pH 9 vs pH 9 + I): 8.3

Compound: CCC[C@@H]1C[C@@H](C(=O)N[C@@H]([C@H]2O[C@H](SC)[C@H](O)[C@@H](O)[C@H]2O)[C@H](C)Cl)N(C)C1 [Clindamycin]
- MIC [1, 8]: 0.047 µg/mL (≈ 0.111 µM)
- Sensitivity of norA- as compared to the wild type [2]: 1

Compound: CC[n+]1c(-c2ccccc2)c2cc(N)ccc2c2ccc(N)cc21 [EtBr, ethidium bromide]
- MIC [1, 3]: 1.25 µg/mL
- MIC ([1]; Staphylococcus aureus): 5 µg/mL
- MIC ([1]; Staphylococcus aureus, pH 7.2): 5 µg/mL
- MIC ([1]; Staphylococcus aureus, pH 9): 0.078 µg/mL
- MIC [2, 4]: 0.33 µg/mL
- MIC [2, 5]: 0.33 µg/mL
- MIC [2, 6]: 0.312 µg/mL
- MIC [2, 7]: 0.01 µg/mL
- Sensitivity of norA- as compared to the wild type [2]: 16
- Sensitivity norA− at pH 9 vs. WT at pH 7.2 [2]: 500

Compound: Acriflavine
- MIC [1, 3]: 10 µg/mL
- MIC [1, 13]: 20 µg/mL
- MIC [2, 4]: 2.5 µg/mL
- MIC [2, 14]: 2.5 µg/mL
- Sensitivity of norA- as compared to the wild type [2]: 8

Compound: COc1ccc2cc3[n+](cc2c1OC)CCc1cc2c(cc1-3)OCO2 [Berberine]
- MIC [1, 9]: 60 µg/mL
- MIC [1, 10]: 3.75 µg/mL
- MIC [2, 6]: 7.5 µg/mL
- MIC [2, 7]: 0.23 µg/mL
- substrate of NorA ([2]; based on comparison of MIC from wild type and norA−): substrates of NorA
- increase in sensitivity, pH 9 combined with norA mutation ([2]; norA− at pH 9 vs wild type at neutral pH): 260 fold
- Sensitivity norA− at pH 9 vs. WT at pH 7.2 [2]: 260
- increase in sensitivity by norA mutation ([2]; norA− vs wild type): 32 fold
- MIC (S. aureus; [11]): 60 µg/mL
- MIC (S. aureus; [12]): 7.5 µg/mL
- MIC (S. aureus; Staphylococcus aureus, MDR inhibitor and high pH, read-out: MIC): 0.012 µg/mL
- substrate of MDR pumps (S. aureus; cationic plant antimicrobial alkaloids): good substrates of MDR pumps
- MIC (S. aureus; pH 7 + I (10 μg/mL)): 0.4 µg/mL
- Ratio (S. aureus; pH 7 vs pH 7 + I): 150
- Potentiation factor (pH 7/(pH 9 + I)) (S. aureus): 4,800
- MIC (S. aureus; pH 9 + I): 0.0125 µg/mL
- Ratio (S. aureus; pH 9 vs pH 9 + I): 600
- increase in potency by MDR inhibitor (S. aureus; proprietary MDR inhibitor (I), Table 3, pH 7): 150 fold

Compound: O=C(O)c1cn(C2CC2)c2cc(N3CCNCC3)c(F)cc2c1=O [Ciprofloxacin]
- MIC [1, 3]: 0.33 µg/mL (≈ 0.996 µM)
- MIC [1, 8]: 0.67 µg/mL (≈ 2.02 µM)
